Patent US20210038554A1, “DIETARY BUTYRATE” (SOCIETE DES PRODUITS NESTLE S.A., priority 2018, published 2021)

Legend:
[1] = target: T1, porcine pancreatic lipase (from pancreatin) (Sus scrofa, UniProt P00591); test: In vitro digestion, simulated intestinal fluid (SIF) model, pH-stat; assay type: in vitro ADME; conditions: SIF alone; 200 mg fat emulsion, pH 6.8, 37° C.
T1 construct: pancreatin (Porcine, USP×8, P7585); purchased Sigma-Aldrich P7585; host or cells: porcine pancreas extract (pancreatin)
T1 sequence (P00591 1-450): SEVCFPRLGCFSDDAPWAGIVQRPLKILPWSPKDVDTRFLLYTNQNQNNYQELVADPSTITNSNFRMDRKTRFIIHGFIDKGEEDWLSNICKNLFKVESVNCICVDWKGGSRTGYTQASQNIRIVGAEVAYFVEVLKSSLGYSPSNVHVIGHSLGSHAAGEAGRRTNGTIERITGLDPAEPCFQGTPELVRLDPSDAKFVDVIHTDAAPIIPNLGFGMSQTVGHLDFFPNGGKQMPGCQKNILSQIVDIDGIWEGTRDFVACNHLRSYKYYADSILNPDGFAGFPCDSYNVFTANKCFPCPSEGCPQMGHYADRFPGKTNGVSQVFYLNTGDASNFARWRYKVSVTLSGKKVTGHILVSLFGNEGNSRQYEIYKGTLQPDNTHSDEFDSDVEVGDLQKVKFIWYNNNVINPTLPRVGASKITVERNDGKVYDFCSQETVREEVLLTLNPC
T1 sequence (P02703 23-112 partner): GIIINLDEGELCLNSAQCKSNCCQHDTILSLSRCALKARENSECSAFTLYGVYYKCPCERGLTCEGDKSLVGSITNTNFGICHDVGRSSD

[2] = test system: rabbit gastric lipase (RGL) followed by porcine pancreatic lipase (PPL); test: In vitro sequential digestion SGF followed by SIF, pH-stat; assay type: in vitro ADME

- initial rate of lipolysis [1]: 223 ± 59 µmol/min
- initial lipolysis rate in SIF after SGF ([2]; SGF-SIF sequential digestion, 200 mg fat emulsion): 44.1 ± 8.8 µmol/min
- extent of hydrolysis in the stomach (gastric lipolysis) ([2]; in words): extensive hydrolysis in the stomach
- lipolysis by gastric lipase ([2]; indicated by decreased total fatty acid release in SIF after RGL in SGF): ~60%
SMILES: CCCC(=O)OCC(COC(=O)CCC)OC(=O)CCC [tributyrin]
